Test results published in patent US6830885B1, “Nucleic acid molecule, method and kit for selecting a nucleic acid having a desired feature” (priority 2000, dated 2004).
Like-named read-outs stand apart in the source and are kept apart here.

Legend:
[1] = tested on: Sindbis-infected BHK-21 cells; details: cited from earlier work
Sindbis viral particles = assay: Virus production from BHK-21 cells infected with VB222-derived Sindbis viral particles under drug treatment; assay type: cell-based; details: multiplicity of infection 0.05, viral particles collected 6 hours later
Method: The viral genome was transcribed from plasmid VB222. The exogenous nucleic acid encodes GFP to facilitate detection of transfected and/or infected cells. BHK-21 cells were transfected with said viral genome and viral particles were collected 34 hours later. These viral particles were tittered by standard plaque assay and used to infect BHK-21 cells at a multiplicity of infection of 0.05. The medium was changed one hour post-infection. Drugs were added one hour post-infection at a concentration of 200 nM (okadaic acid) or 30 μg/ml (cerulenin) and viral particles were collected 6 hours later. […] Treatment with the drug could be maintained while propagating the viral particles, thereby further decreasing the number of viral particles produced from viral genomes expressing an exogenous nucleic acid encoding a peptide or protein that is not involved in drug-resistance.

Row | Structure (SMILES) | production of viral particles ([1]; 30 μg/ml) | decrease in virus production (Sindbis viral particles; cerulenin 30 μg/ml added one hour post-infection) | production of viral particles ([1]; 200 nM) | decrease in virus production (Sindbis viral particles; okadaic acid 200 nM added one hour post-infection)
1 | C/C=C/C/C=C/CCC(=O)[C@H]1O[C@H]1C(N)=O [cerulenin] | impairs production of viral particles | 39 fold |  | 
2 | C=C1[C@@H](O)[C@@H]2O[C@]3(CC[C@H](/C=C/[C@@H](C)[C@@H]4CC(C)=C[C@@]5(O[C@H](C[C@@](C)(O)C(=O)O)CC[C@H]5O)O4)O3)CC[C@H]2O[C@@H]1[C@@H](O)C[C@H](C)[C@H]1O[C@@]2(CCCCO2)CC[C@H]1C [okadaic acid] |  |  | impairs production of viral particles | 13 fold
